{"source": "paper PMC11005379", "about": "“Control of three-carbon amino acid homeostasis by promiscuous importers and exporters in Bacillus subtilis: role of the “sleeping beauty” amino acid exporters” (mBio, 2024)", "type_in_all_cases": "cell-based", "key": {"[1]": {"target": "T1, AexA (YdeD) (Bacillus subtilis, UniProt P96661)", "T1 construct": "native full-length EamA family exporter in intact B. subtilis cells; chromosomal gene overexpressed by aerA Y179D (GP4117) against aerA Y179D deltaaexA (GP3958)", "T1 sequence (P96661 1-319)": "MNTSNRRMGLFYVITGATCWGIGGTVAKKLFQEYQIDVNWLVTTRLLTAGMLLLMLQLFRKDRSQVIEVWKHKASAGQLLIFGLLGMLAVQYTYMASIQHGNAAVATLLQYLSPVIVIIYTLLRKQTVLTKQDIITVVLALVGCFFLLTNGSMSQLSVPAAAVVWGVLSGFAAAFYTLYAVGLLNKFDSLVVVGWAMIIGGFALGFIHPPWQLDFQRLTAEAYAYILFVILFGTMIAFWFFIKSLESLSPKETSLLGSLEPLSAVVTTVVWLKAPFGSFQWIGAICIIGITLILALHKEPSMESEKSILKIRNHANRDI", "experiment": "intracellular accumulation of radiolabelled substrate, overexpressing against deletion strain", "conditions": "labelled compound; 30 mM beta-alanine; C-Glc minimal medium; export; intact cells"}, "[2]": {"target": "T2, AimA (Bacillus subtilis, UniProt Q45577)", "T2 construct": "native full-length APC superfamily permease in intact B. subtilis cells; wild type 168 against deltaaimA (GP3590)", "T2 sequence (Q45577 1-539)": "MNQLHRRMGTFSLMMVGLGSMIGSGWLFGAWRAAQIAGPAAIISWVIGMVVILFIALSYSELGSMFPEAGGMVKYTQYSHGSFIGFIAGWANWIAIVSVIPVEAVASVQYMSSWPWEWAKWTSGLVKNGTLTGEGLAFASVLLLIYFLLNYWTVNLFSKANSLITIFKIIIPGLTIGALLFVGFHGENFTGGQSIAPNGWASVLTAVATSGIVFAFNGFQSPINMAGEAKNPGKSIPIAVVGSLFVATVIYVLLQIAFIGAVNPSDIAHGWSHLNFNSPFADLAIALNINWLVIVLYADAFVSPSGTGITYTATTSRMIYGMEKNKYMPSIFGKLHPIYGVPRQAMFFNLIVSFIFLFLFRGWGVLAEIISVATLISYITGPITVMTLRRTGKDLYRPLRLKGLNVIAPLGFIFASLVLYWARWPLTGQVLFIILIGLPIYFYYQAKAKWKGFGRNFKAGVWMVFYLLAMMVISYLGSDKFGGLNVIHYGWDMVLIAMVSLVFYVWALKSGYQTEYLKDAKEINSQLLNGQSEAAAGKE", "experiment": "radiolabelled substrate uptake, wild type against deletion strain", "conditions": "labelled compound, 30 mM beta-alanine, C-Glc minimal medium, intact cells"}, "[3]": {"target": "T3, AlaP (Bacillus subtilis, UniProt O34618)", "T3 construct": "gene ytnA; native full-length APC superfamily permease in intact B. subtilis cells", "T3 sequence (O34618 1-463)": "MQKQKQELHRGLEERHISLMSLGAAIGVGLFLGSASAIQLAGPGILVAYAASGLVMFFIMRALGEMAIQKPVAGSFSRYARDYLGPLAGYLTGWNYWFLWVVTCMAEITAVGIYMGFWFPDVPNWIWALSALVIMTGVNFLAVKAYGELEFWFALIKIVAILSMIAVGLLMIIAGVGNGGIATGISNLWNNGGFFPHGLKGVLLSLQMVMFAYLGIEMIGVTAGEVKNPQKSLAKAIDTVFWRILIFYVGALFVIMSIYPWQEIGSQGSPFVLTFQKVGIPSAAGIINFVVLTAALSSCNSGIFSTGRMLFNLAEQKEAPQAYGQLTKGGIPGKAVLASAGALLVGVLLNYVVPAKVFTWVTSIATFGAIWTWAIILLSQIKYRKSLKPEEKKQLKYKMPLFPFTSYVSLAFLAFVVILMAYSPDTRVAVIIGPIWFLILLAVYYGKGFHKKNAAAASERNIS", "experiment": "radiolabelled substrate uptake, wild type against deletion strain", "conditions": "labelled compound, 30 mM beta-alanine, C-Glc minimal medium, intact cells"}}}
{"compound": "NCCC(=O)O", "note": "[β-alanine]", "values": [{"measurement": "intracellular accumulation of radiolabelled substrate, overexpressing against de", "setting": "[1]", "value": "clearly demonstrates that AexA indeed acts as an exporter for β-alanine"}, {"measurement": "radiolabelled substrate uptake, wild type against deletion strain", "setting": "[2]", "value": "a severe reduction was observed in the alaP and aimA mutants"}, {"measurement": "radiolabelled substrate uptake, wild type against deletion strain", "setting": "[3]", "value": "a severe reduction was observed in the alaP and aimA mutants"}]}
